Results published in US9416141B2 (University of Washington through its Center for …, priority 2012, dated 2016).
pEC50: −log10 of the molar value. Counter-ions that a name gives are not always drawn.

Tested on: hair cells
Assay: Hair cell toxicity assay in zebrafish (neomycin-induced hair cell death, DASPEI staining of neuromasts)
Assay type: in vivo
Conditions: Danio rerio; for Emax at 25 µM: maximum observed @ 25 μM test compound; for pEC50: zebrafish larvae 5-7 dpf, 1 h pre-treatment, then 200 micromolar neomycin + test compound 30 min, read-out: HC50 (concentration that would produce 50% hair cell survival); for Emax at 2.8 µM: maximum observed @ 2.8 μM test compound; for Emax at 8.3 µM: maximum observed @ 8.3 μM test compound
Summary of the method: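 Hair cell survival, as % of untreated controls, came from DASPEI scoring (0-2 each, ten neuromasts on one side) in 5-7 dpf larvae. These had 1 h compound pre-exposure (0.010-25 μM), then 200 μM neomycin with compound for 30 min. HCmax is peak protection; HC50 interpolated between flanking concentrations only when ≥50% survive.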

[1] = 200 micromolar neomycin, read-out: Max HC Protection (HCmax, % hair cell survival)

SMILES | Emax at 25 µM [1] [%] | pEC50 | other results
NC(=O)c1c(NC(=O)Nc2ccc(Cl)cc2)sc2c1CCN(C1CCNC1)C2 (racemic) [Example 7, (+/−)-2-[3-(4-Chlorophenyl)ureido]-6-(pyrrolidin-3-yl)-4,5,6,7-tetrahydrothieno[2,3-c]pyridine-3-carboxamide dihydrochloride] | 78 | 5.00 to 6.00 | –
CCN1CCc2c(ccc(NC(=O)Nc3ccc(Cl)cc3)c2C(N)=O)C1 [Example 112, 6-[3-(4-chlorophenyl)ureido]-2-ethyl-1,2,3,4-tetrahydroisoquinoline-5-carboxamide hydrochloride] | 49 | – | –
CC1(CN2CCc3c(sc(NC(=O)Nc4ccc(Cl)cc4)c3C(N)=O)C2)CC1 [Example 63, 2-[3-(4-Chlorophenyl)ureido]-6-[(1-methylcyclopropyl)methyl]-4,5,6,7-tetrahydrothieno[2,3-c]pyridine-3-carboxamide hydrochloride] | – | 5.00 to 6.00 | Emax at 2.8 µM [1]: 54%
CCN1CCc2c(sc(NC(=O)Nc3ccc(C(=O)OC)cc3)c2C(N)=O)C1 [Example 31, Methyl 4-[3-(3-carbamoyl-6-ethyl-4,5,6,7-tetrahydrothieno[2,3-c]pyridin-2-yl)ureido]benzoate trifluoroacetate] | 22 | – | –
CCCC[N+]1(C)CCc2c(sc(NC(=O)Nc3ccc(Cl)cc3)c2C(N)=O)C1 (stereo not shown) [Example 219, 6-butyl-3-carbamoyl-2-{[(4-chlorophenyl)carbamoyl]amino}-6-methyl-4H,5H,6H,7H-thieno[2,3-c]pyridin-6-ium] | 92 | > 6.00 | –
C[N+]1(C)CCCC12CCc1c(sc(NC(=O)Nc3ccc(Cl)cc3)c1C(N)=O)C2 (racemic) [Example 186, (+/−)-3-Carbamoyl-2-[3-(4-chlorophenyl)ureido]-1′,1′-dimethyl-5,7-dihydro-4H-spiro(benzo[b]thiophene-6,2′-pyrrolidin)-1′-ium trifluoroacetate] | – | > 6.00 | Emax at 2.8 µM [1]: 65%
CC[N+]1(C)CCc2sc(NC(=O)Nc3ccc(Cl)cc3)c(C(N)=O)c2CC1 (stereo not shown) [Example 174, 3-Carbamoyl-2-[3-(4-chlorophenyl)ureido]-6-ethyl-6-methyl-5,6,7,8-tetrahydro-4H-thieno[2,3-d]azepin-6-ium iodide] | 74 | 5.00 to 6.00 | –
COCCCN1CCc2c(sc(NC(=O)Nc3ccc(Cl)cc3)c2C(N)=O)C1 [Example 3, 2-[3-(4-Chlorophenyl)ureido]-6-(3-methoxypropyl)-4,5,6,7-tetrahydrothieno[2,3-c]pyridine-3-carboxamide hydrochloride] | 76 | 5.00 to 6.00 | –
CCOC(=O)c1c(Nc2c(Nc3ccc(Cl)cc3)c(=O)c2=O)sc2c1CCN(CC)C2 [Example 110, Ethyl 2-({2-[(4-chlorophenyl)amino]-3,4-dioxocyclobut-1-en-1-yl}amino)-6-ethyl-4,5,6,7-tetrahydrothieno[2,3-c]pyridine-3-carboxylate hydrochloride] | 69 | < 5.00 | –
CC(C)(C)OC(=O)NCCN1CCc2c(sc(NC(=O)Nc3ccc(Cl)cc3)c2C(N)=O)C1 [Example 10, tert-Butyl 2-{3-carbamoyl-2-[3-(4-chlorophenyl)ureido]-4,5-dihydrothieno[2,3-c]pyridin-6(7H)-yl}ethylcarbamate] | – | – | Emax at 8.3 µM [1]: 13%
CN1CCC(N2CCc3c(sc(NC(=O)Nc4ccc(Cl)cc4)c3C(N)=O)C2)C1 (racemic) [Example 9, (+/−)-2-[3-(4-Chlorophenyl)ureido]-6-(1-methylpyrrolidin-3-yl)-4,5,6,7-tetrahydrothieno[2,3-c]pyridine-3-carboxamide dihydrochloride] | 82 | 5.00 to 6.00 | –
CC(C)(C)OC(=O)CCCCC[N+]1(C)CCc2c(sc(NC(=O)Nc3ccc(Cl)cc3)c2C(N)=O)C1 (stereo not shown) [Example 156, 6-(6-tert-Butoxy-6-oxohexyl)-3-carbamoyl-2-[3-(4-chlorophenyl)ureido]-6-methyl-4,5,6,7-tetrahydrothieno[2,3-c]pyridin-6-ium iodide] | – | > 6.00 | Emax at 2.8 µM [1]: 96%
CC(C)(C)OC(=O)C[N+]1(C)CCc2c(sc(NC(=O)Nc3ccc(Cl)cc3)c2C(N)=O)C1 (stereo not shown) [Example 147, 6-(2-tert-Butoxy-2-oxoethyl)-3-carbamoyl-2-[3-(4-chlorophenyl)ureido]-6-methyl-4,5,6,7-tetrahydrothieno[2,3-c]pyridin-6-ium iodide] | – | > 6.00 | Emax at 2.8 µM [1]: 90%
CC(C)C(C)[N+]1(C)CCc2c(sc(NC(=O)Nc3ccc(Cl)cc3)c2C(N)=O)C1 (racemic) [Example 204, (+/−)-3-Carbamoyl-2-[3-(4-chlorophenyl)ureido]-6-methyl-6-(3-methylbutan-2-yl)-4,5,6,7-tetrahydrothieno[2,3-c]pyridin-6-ium chloride] | – | – | Emax at 8.3 µM [1]: 77%
NC(=O)c1c(NC(=O)Nc2ccc(Cl)cc2)sc2c1CCN(CC1CC1)C2 [Example 1, 2-[3-(4-chlorophenyl)ureido]-6-(cyclopropylmethyl)-4,5,6,7-tetrahydrothieno[2,3-c]pyridine-3-carboxamide hydrochloride] | 92 | 5.00 to 6.00 | –
CCN1CCc2c(sc(NC(=O)Nc3ccc(Cl)cc3)c2C(=O)NCCN2CCOCC2)C1 [Example 100, 2-[3-(4-Chlorophenyl)ureido]-6-ethyl-N-(2-morpholinoethyl)-4,5,6,7-tetrahydrothieno[2,3-c]pyridine-3-carboxamide dihydrochloride] | 59 | 5.00 to 6.00 | –
CCN1CCc2c(sc(NC(=O)Nc3ccc(OC)cc3)c2C(N)=O)C1 [Example 230, 6-ethyl-2-{[(4-methoxyphenyl)carbamoyl]amino}-4H,5H,6H,7H-thieno[2,3-c]pyridine-3-carboxamide] | 48 | – | –
CCN1CCc2c(sc(NC(=O)C3(c4ccc(Cl)cc4)CC3)c2C(N)=O)C1 [Example 105, 2-[1-(4-chlorophenyl)cyclopropanecarboxamido]-6-ethyl-4,5,6,7-tetrahydrothieno[2,3-c]pyridine-3-carboxamide] | 7 | – | –
CC(C)(C)OC(=O)C1CC([N+]2(C)CCc3c(sc(NC(=O)Nc4ccc(Cl)cc4)c3C(N)=O)C2)C1 (stereo not shown) [Example 163, 6-[3-(tert-Butoxycarbonyl)cyclobutyl]-3-carbamoyl-2-[3-(4-chlorophenyl)ureido]-6-methyl-4,5,6,7-tetrahydrothieno[2,3-c]pyridin-6-ium iodide] | – | > 6.00 | Emax at 8.3 µM [1]: 88%
C[N+]1(CC(F)(F)F)CCc2c(sc(NC(=O)Nc3ccc(Cl)cc3)c2C(N)=O)C1 (stereo not shown) [Example 192, 3-Carbamoyl-2-[3-(4-chlorophenyl)ureido]-6-methyl-6-(2,2,2-trifluoroethyl)-4,5,6,7-tetrahydrothieno[2,3-c]pyridin-6-ium iodide] | 88 | > 6.00 | –
CC(C)(C)OC(=O)CCC[N+]1(CC2CCC2)CCc2c(sc(NC(=O)Nc3ccc(Cl)cc3)c2C(N)=O)C1 (stereo not shown) [Example 199, 6-[4-(tert-Butoxy)-4-oxobutyl]-3-carbamoyl-2-[3-(4-chlorophenyl)ureido]-6-(cyclobutylmethyl)-4,5,6,7-tetrahydrothieno[2,3-c]pyridin-6-ium trifluoroacetate] | – | > 6.00 | Emax at 0.3 µM (maximum observed @ 0.3 μM test compound, 200 micromolar neomycin, read-out: Max HC Protection (HCmax, % hair cell survival)): 68%
CCN1CCc2c(sc(NC(=O)N(C)c3ccc(Cl)cc3)c2C(N)=O)C1 [Example 106, 2-[3-(4-chlorophenyl)-3-methylureido]-6-ethyl-4,5,6,7-tetrahydrothieno[2,3-c]pyridine-3-carboxamide hydrochloride] | 23 | – | –
CCN1CCCc2c(sc(NC(=O)Nc3ccc(Cl)cc3)c2C(N)=O)C1 [Example 114, 2-[3-(4-chlorophenyl)ureido)-7-ethyl-5,6,7,8-tetrahydro-4H-thieno[2,3-c]azepine-3-carboxamide hydrochloride] | 97 | 5.00 to 6.00 | –
CON=C1CCc2c(sc(NC(=O)Nc3ccc(Cl)cc3)c2C(N)=O)C1 (single isomer, unassigned) [Example 121, 2-[3-(4-chlorophenyl)ureido]-6-(methoxyimino)-4,5,6,7-tetrahydrobenzo[b]thiophene-3-carboxamide] | – | – | Emax at 3 µM (maximum observed @ 03 μM test compound, 200 micromolar neomycin, read-out: Max HC Protection (HCmax, % hair cell survival)): 6%
NC(=O)c1c(NC(=O)Nc2ccc3ccccc3c2)sc2c1CCN(CC1CCC1)C2 [Example 35, 6-(Cyclobutylmethyl)-2-[3-(naphthalen-2-yl)ureido]-4,5,6,7-tetrahydrothieno[2,3-c]pyridine-3-carboxamide hydrochloride] | – | – | Emax at 2.8 µM [1]: 42%
COC(=O)CCN1CCc2c(sc(NC(=O)Nc3ccc(Cl)cc3)c2C(N)=O)C1 [Example 55, Methyl 3-{3-carbamoyl-2-[3-(4-chlorophenyl)ureido]-4,5-dihydrothieno[2,3-c]pyridin-6(7H)-yl}propanoate] | – | – | Emax at 2.8 µM [1]: 17%
CCOC(=O)CC[N+]1(C)CCc2c(sc(NC(=O)Nc3ccc(Cl)cc3)c2C(N)=O)C1 (stereo not shown) [Example 160, 3-Carbamoyl-2-[3-(4-chlorophenyl)ureido]-6-(3-ethoxy-3-oxopropyl)-6-methyl-4,5,6,7-tetrahydrothieno[2,3-c]pyridin-6-ium chloride iodide] | – | 5.00 to 6.00 | Emax at 2.8 µM [1]: 70%
CC(C)(C)OC(=O)CC[N+]1(C)CCc2c(sc(NC(=O)Nc3ccc(Cl)cc3)c2C(N)=O)C1 (stereo not shown) [Example 151, 6-(3-tert-Butoxy-3-oxopropyl)-3-carbamoyl-2-[3-(4-chlorophenyl)ureido]-6-methyl-4,5,6,7-tetrahydrothieno[2,3-c]pyridin-6-ium iodide] | – | > 6.00 | Emax at 2.8 µM [1]: 105%
